The assay concerns H460 non-cell lung cancer human tumor cell line. Put plainly: In vitro human tumor cell line cytotoxicity (proliferation) assay, AlamarBlue. In kind it is cell-based. The settings on record: Homo sapiens, NCI-H460, H460 cells, 2 hrs exposure, wash, then 70 hrs growth. Summed up:
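H460 cells (4×10^3/well) attached for 24 h, then were exposed to compound for 2 hours at 37° C. before washout and 70 hrs further growth in fresh medium. Viable cells were measured by AlamarBlue, and IC50 (50% growth inhibition) was determined relative to media-only control.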
For orientation: The colour change of resazurin is a common sign of viable cells or microbes.

[1] abbreviates: under air, read-out: IC50 (air).
[2] abbreviates: under nitrogen, read-out: IC50 (N2).

Read-outs that look alike come from different tables or passages of the source.

With `Cn1c([N+](=O)[O-])cnc1COP(=O)(N1CC1)N1CC1` [compound 2136], the IC50 – broadly, the concentration that inhibits the measured activity by half – runs as follows: under setting [1], 24 µM; under setting [2], 0.1 µM.
As to `Cc1cccc([N+](=O)[O-])c1COP(=O)(N1CC1)N1CC1` [compound 2588], the IC50 under setting [1] was 10 µM and the IC50 under setting [2] worked out at 1.3 µM.
On the same counts, the results for `CC(OP(=O)(N1CC1)N1CC1)c1ccc([N+](=O)[O-])c(N2CCC(O)CC2)c1` (stereo not shown) [compound 2752] are 270 µM and 5.7 µM.
In the case of `C=CCCn1c([N+](=O)[O-])cnc1C(OP(=O)(N1CC1)N1CC1)C(C)C` (stereo not shown) [compound 2574], the IC50 turned out to be 29 µM under setting [1] and 0.1 µM under setting [2].
For `CCCC(OP(=O)(N1CC1)N1CC1)c1ncc([N+](=O)[O-])n1C` (stereo not shown) [compound 2529], the IC50 reads like this: under setting [1], 33 µM; under setting [2], 0.2 µM.
As to `Cc1cn(-c2cc(C(C)OP(=O)(N3CC3)N3CC3)ccc2[N+](=O)[O-])cn1` (stereo not shown) [compound 2747], the IC50 was 39 µM under setting [1] and 0.3 µM under setting [2].
Turning to `C=CCCn1c([N+](=O)[O-])cnc1COP(=O)(N1CC1)N1CC1` [compound 2582], the IC50 was determined as 18 µM under setting [1] and 0.1 µM under setting [2].
For the molecule `Cn1c(C(OP(=O)(N2CC2)N2CC2)C(F)(F)C(F)(F)F)cnc1[N+](=O)[O-]` (stereo not shown) [compound 2128], the IC50 stood at 18 µM under setting [1] and 0.02 µM under setting [2].
`CC(OP(=O)(N1CC1)N1CC1)c1ccc([N+](=O)[O-])cc1F` (stereo not shown) [compound 2706]: the IC50 came out at 14 µM under setting [1] and 0.03 µM under setting [2].
Consider `Cc1cccc([N+](=O)[O-])c1C(C)OP(=O)(N1CC1)N1CC1` (stereo not shown) [compound 2615], for which the half-inhibitory concentration (IC50) runs as follows: under setting [1], 350 µM; under setting [2], 320 µM.
As for `CC(OP(=O)(N1CC1)N1CC1)c1ccc([N+](=O)[O-])c(-c2ccccc2)c1` (stereo not shown) [compound 2785], the IC50 runs as follows: under setting [1], 47 µM; under setting [2], 1.6 µM.
On the same counts, the results for `O=[N+]([O-])c1ccc(COP(=O)(N2CC2)N2CC2)cc1F` [compound 2666] are 24 µM and 2 µM.
On the same counts, the results for `O=[N+]([O-])c1cnc(COP(=O)(N2CC2)N2CC2)n1C1CCCC1` [compound 2635] are 13 µM and 0.22 µM.
As for `CC(OP(=O)(N1CC1)N1CC1)c1ccc([N+](=O)[O-])c(N2CCOCC2)c1` (stereo not shown) [compound 2695], the IC50 under setting [1] turned out to be 130 µM and the IC50 under setting [2] was determined as 4.2 µM.
Taken in the same sequence, the figures for `CCCCC(CCCC)C(OP(=O)(N1CC1)N1CC1)c1ncc([N+](=O)[O-])n1C` (stereo not shown) [compound 2645] were 30 µM and 1.6 µM.
For `Cc1cc([N+](=O)[O-])ccc1C(C)OP(=O)(N1CC1)N1CC1` (stereo not shown) [compound 2611], the half-inhibitory concentration (IC50) by setting is: under setting [1], 14 µM; under setting [2], 0.2 µM.
Take `CC(OP(=O)(N1CC1)N1CC1)c1cc(-n2cncn2)c([N+](=O)[O-])cc1F` (stereo not shown) [compound 2733]: the IC50 reads like this: under setting [1], 2.8 µM; under setting [2], 0.03 µM.
Taken in the same sequence, the figures for `C=CCC(OP(=O)(N1CC1)N1CC1)c1ccc([N+](=O)[O-])cc1` (stereo not shown) [compound 2689] were 43 µM and 0.6 µM.
`Cc1ccc(-c2cc(C(C)OP(=O)(N3CC3)N3CC3)ccc2[N+](=O)[O-])cc1` (stereo not shown) [compound 2789]: the 50% inhibitory concentration (IC50) came to 36 µM under setting [1] and 2.4 µM under setting [2].
Taken in the same sequence, the figures for `Cn1c([N+](=O)[O-])cnc1C(OP(=O)(N1CC1)N1CC1)C(F)(F)F` (stereo not shown) [compound 2145] were 170 µM and 0.4 µM.
Take `CC(C)C(OP(=O)(N1CC1)N1CC1)c1nc(Br)c([N+](=O)[O-])n1C` (stereo not shown) [compound 2624]: the IC50 is, setting by setting: under setting [1], 160 µM; under setting [2], 0.5 µM.
With `COc1cc(C(C)OP(=O)(N2CC2)N2CC2)ccc1[N+](=O)[O-]` (stereo not shown) [compound 2620], the IC50 was determined as 7.4 µM under setting [1] and 2.5 µM under setting [2].
As for `CC(=O)OCC(OP(=O)(N1CC1)N1CC1)c1ccc([N+](=O)[O-])cc1` (stereo not shown) [compound 2686], the IC50 by setting is: under setting [1], 79 µM; under setting [2], 3.1 µM.

Source of the values: patent US10668047B2, “Aziridine containing DNA alkylating agents” (priority 2015, dated 2020).
